Experimental findings from publication PMC10388362, “Fluorescent Ligands Enable Target Engagement Studies for the Intracellular Allosteric Binding Site of the Chemokine Receptor CXCR2” (Journal of Medicinal Chemistry, 2023) are described below.

Test [1] has as its target T1, CXCR2 (Homo sapiens, UniProt P25025).
T1 construct: Promega pNLF1-C (Nluc) #CXCR20TN00; host or cells: HEK293T, transient transfection (PEI)
T1 sequence (P25025 1-360): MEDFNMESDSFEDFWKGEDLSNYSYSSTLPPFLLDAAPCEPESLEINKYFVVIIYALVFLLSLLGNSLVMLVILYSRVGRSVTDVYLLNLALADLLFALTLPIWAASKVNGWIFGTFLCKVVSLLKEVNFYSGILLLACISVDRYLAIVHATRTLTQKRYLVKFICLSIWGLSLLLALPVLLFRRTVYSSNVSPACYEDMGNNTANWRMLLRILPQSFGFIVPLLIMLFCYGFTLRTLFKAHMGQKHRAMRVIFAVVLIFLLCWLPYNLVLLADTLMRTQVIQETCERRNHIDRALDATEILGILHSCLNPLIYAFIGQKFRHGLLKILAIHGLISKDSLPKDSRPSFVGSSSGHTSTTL
The test can be described thus: Membrane-based NanoBRET competition assay with 9a. To be noted: competition with 9a (50 nM), CXCR2_Nluc membranes. The class given is binding. As to the method:
Then, 20 μL of the membrane preparation (diluted in assay buffer, 2 μg total protein/well) was added and the plates were incubated for 90 min at 37 °C. Subsequently, 5 μL of a furimazine solution (final assay dilution: 1:5000 in the assay buffer) was added to each well (final assay volume: 35 μL). […] To determine the inhibition constants (Ki) of the nonlabeled ligands, data were analyzed using the one-site-fit Ki equation in PRISM9.5 (GraphPad).

The target in test [2] is T1, CXCR2. In words: Membrane-based NanoBRET competition kinetic assay with 9a. To be noted: kinetic competitive binding with 9a (50 nM), CXCR2_Nluc membranes; read-out: residence time tr. On the procedure: 2.5 μL of a solution of the fluorescent ligand (9a) diluted in the assay buffer (final assay concentration: 50 nM) and 2.5 μL of a solution of the competing nonlabeled ligands (final assay concentrations: […]) or 3 for determining nonspecific binding (final assay concentration: 25 μM) in the assay buffer were transferred to a 384-well plate. […] Thereafter, 20 μL of the membrane preparation (2 μg total protein/well) was added and BRET ratios were measured with a CLARIOstar microplate reader using 620/10 and 475/30 nm emission filters over time. Specific BRET ratios were calculated as a difference of total and nonspecific binding. The obtained data were analyzed using the kinetics of the competitive binding algorithm in PRISM9.5 (GraphPad) to determine competition binding kinetics.
In general terms: BRET reads energy transfer from a luciferase to a nearby fluorophore.

For test [3], the target named is T1, CXCR2. The test can be described thus: Live cell NanoBRET competition binding with 9a. To be noted: competition with 9a (50 nM), live HEK293T cells expressing CXCR2_Nluc. On the procedure: HEK293T cells were transfected with the plasmid (5.5 μg) for CXCR2_Nluc using polyethylenimine (PEI) as transfection reagent (PEI/DNA ratio 3:1). After 24 h at 37 °C and 5% CO2, the cells were detached with DMEM and transferred to a white F-bottom 384-well plate (10,000 cells/well), which was coated with 5 μL/well poly-D-lysine (0.1 mg/mL, dissolved in water), and incubated for further 24 h at 37 °C and 5% CO2. Subsequently, the cells were washed with phosphate-buffered saline (Gibco DPBS, with CaCl2 and MgCl2). The assay medium (Gibco DMEM/F12, 15 mM HEPES, no phenol red supplemented with 5% FBS) was added and the cells were incubated at 37 °C for 30 min. […] To determine nonspecific binding, 5 μL of a solution of 3 dissolved in the assay medium (final assay concentration: 10 μM) were added.
Total, nonspecific and specific binding, which was calculated as a difference of total and nonspecific binding, were analyzed using the algorithms for one-site saturation binding in PRISM9.5 (GraphPad). To determine the inhibition constants (Ki) of the potential competitors, data were normalized to total and nonspecific binding and analyzed using the one-site-fit Ki equation in PRISM9.5 (GraphPad).

Test [4] deals with T1, CXCR2. The test can be described thus: Fluorescence microscopy, displacement of 9a in HEK293 cells stably expressing CXCR2. The class given is cell-based. To be noted: 9a 500 nM. On the procedure: For live cell microscopy, HEK293 cells stably expressing CXCR2 were seeded onto poly-D-lysine (PDL)-coated 8-well μ-slides (Ibidi) at a density of 1.5 × 10^5 cells per well and cultured overnight at 37 °C and 5% CO2. […] Afterward, the fluorescent CXCR2 ligand ((9a) final concentration 500 nM) was added for 60 min at 37 °C, and the cells were washed once with PBS before imaging. For immunostaining, the cells were first fixed with 4% paraformaldehyde solution, washed with PBS, and then blocked for 1 h with 10% goat serum and 1% fatty acid-free bovine serum albumin (BSA) in PBS at 37 °C. As primary antibody, anti-CXCR2 mouse IgG (R&D Systems, catalog # 48311, 1:100 in blocking solution) was added, and the cells were incubated for 1 h at 37 °C. After three washes with PBS, goat anti-mouse IgG (H+L) conjugated to FITC (Sigma-Aldrich, catalog # AP124F, 1:500 in blocking solution) was added for 1 h at 37 °C. The cells were again washed three times with PBS and counterstained with 4′,6-diamidin-2-phenylindole (DAPI) solution (0.1 μg/mL) for 15 min in the dark at room temperature, followed by three washes with PBS. […] Afterward, the fluorescent CXCR2 ligand ((9a) final concentration 500 nM) was added for 30 min at 37 °C and the cells were imaged. Microscopy was carried out on an AxioObserver.Z1 microscope (Carl Zeiss, Jena, Germany) equipped with an ApoTome imaging system and a Heating unit XL S using a Plan-Apochromat ×63/1.40 Oil objective (filter set 43 (red), 38 (green), 49 (blue)). Image processing and line scan analysis were performed with Zen blue Imaging software. The fluorescence intensity values were normalized to vehicle control.

`Cc1ccc([C@H](Nc2c(Nc3cccc(C(=O)N(C)C)c3O)c(=O)c2=O)C(C)(C)C)o1` [compound 3]: the Ki in test [1] (read-out: Ki) was 0.09 nM; in test [1] (read-out: pKi (converted)), 0.0794 nM; in test [3] (read-out: Ki), 0.011 nM; in test [3] (read-out: pKi (converted)) it was 0.00933 nM. The residence time in test [2] is 474 ± 59 min. For the same compound, the “effect of preincubation on membrane-associated 9a fluorescence” value in test [4] (fixed HEK293 cells stably expressing CXCR2, competitor 10 μM) is “virtually blunted all membrane-associated probe fluorescence”. In test [4] (live cell imaging, HEK293 cells stably expressing CXCR2, competitor 10 μM), the “effect of preincubation on membrane-based 9a fluorescence” value was “very strong reduction in membrane-based fluorescence”.
